Experimental findings from US11141462B2, “Method for the treatment or prevention of osteoarthritis” (Chondropeptix B.V., priority 2016, dated 2021) are described below.

Format in all cases: cell-based, human
Experiment [1] concerns Isolated chondrocytes from OA patients. Description: Treatment of isolated chondrocytes from OA patients, gene expression by qRT-PCR. The conditions noted are these: 1 nM, 24 h; qRT-PCR normalized for 28S rRNA; n=6. The protocol:
Isolated chondrocytes from OA patients (n=6) were treated with BMP-7 (1 nM) or the 12-mer peptide according to SEQ ID NO: 43 (1 nM) for 24 h. Pro-chondrogenic (FIG. 8A) and hypertrophic (FIGS. 8B, 8C and 8D) gene expression was determined via qRT-PCR and normalized for 28S rRNA levels.
(Real-time PCR tracks product formation cycle by cycle.)

Experiment [2] relates to cartilage explants from OA patient's knee articular cartilage. As to the kind of experiment: Treatment of cartilage explants, hypertrophic gene expression by qRT-PCR. The note with it: 10 nM, 24 h. The method, then:
4 mm 2 cartilage explants were taken from non-lesion areas of OA patient's knee articular cartilage (n=5) and randomly assigned to different experimental treatment conditions (4 explants per treatment group). After a 24 h equilibration period the explants were treated with BMP-7 (1 nM) or the 12-mer peptide according to SEQ ID NO: 43 (10 nM) for 24 h. Hypertrophic gene expression was determined via qRT-PCR and normalized for 28S rRNA levels. After treatment with BMP-7 or the 12 mer we observed a downregulation of pro-hypertrophic genes, such as Col10a1 (FIG. 9A) and MMP13 (FIG. 9B).

The subject of experiment [3] is OA articular chondrocytes. Description: OA chondrocyte phenotype gene expression screening of BMP-7 peptides (RT-qPCR). Also on record: key to IL-6 / ADAMTS5 / COL10A / BAPX1/NKX3.2 / ALP / RUNX2: —: [-] denotes the absence of a significant effect or a significantly decreased expression of chondrogenic marker genes BAPX1/NKX3.2, or a significantly increased expression of OA phenotypic markers IL-6, ADAMTS5, COL10A, ALP and RUNX2 in OA articular chondrocytes, in comparison to untreated OA articular chondrocytes. The note with it: for ADAMTS5 / ALP / BAPX1/NKX3.2 / COL10A / IL-6 / RUNX2: Table 1, gene expression in OA articular chondrocytes vs untreated; for suppression of the OA chondrocyte phenotype: independent of the tested concentration (1000, 100, 10 and 1 nM were tested). The method, then: (§1) FIG. 2: The action of 20-mer peptides (10 nM) of SEQ ID NO: 2-17 (peptides with 1 or 2 amino acids intervals (18-19 amino acid overlap)) and a random peptide with a sequence according to SEQ ID NO: 49 on the expression of ADAMTS5 was determined on a validated pool of passage 2 OA human articular chondrocytes (n=18) and compared to full-length recombinant BMP-7 (1 nM). Samples were harvested after 24 hours and analyzed for indicated genes by RT-qPCR (normalized for 28S rRNA expression and relative to control conditions (no peptide exposure)). In the graphs, numbers on the x-axis represent individual peptides according to their SEQ ID NO's, error bars represent mean±SEM, statistical differences were calculated (one-way ANOVA with bonferroni correction) to control condition. *=p<0.05 lower than control condition for ADAMTS5. Random peptide is a peptide according to SEQ ID NO: 49.
as §1, with “3:” for “2:”, “ALP” for “ADAMTS5”, “ALP.” for “ADAMTS5.”
as §1, with “4:” for “2:”, “BAPX1/NKX3.2” for “ADAMTS5”, “BAPX1/NKX3.2.” for “ADAMTS5.”
as §1, with “5:” for “2:”, “COL10A1” for “ADAMTS5”, “COL10A1.” for “ADAMTS5.”
FIG. 6: The action of 20-mer peptides (10 nM) of SEQ ID NO: 2-17 (peptides with 1 or 2 amino acids intervals (18-19 amino acid overlap)) and a random peptide with a sequence according to SEQ ID NO: 49 on the expression of IL-6 was determined on a validated pool of passage 2 OA human articular chondrocytes (n=18) and compared to full-length recombinant BMP-7 (1 nM). […]

The subject of another experiment is Cartilage explants. Description: Safranin-O staining of glycosaminoglycans in cartilage explants. The note with it: 10 nM, 14 days; explants from 2 patients; compared to control. The protocol: Cartilage explants obtained from 2 patients were cultured for 14 days in the presence of BMP-7 (1 nM) or BMP-7 mimicking peptide […] (SEQ ID NO: 13) at 10 nM. Glycosaminoglycans (GAGs), an important component of the extracellular matrix (ECM), were stained with Safranin-O (in red) and other tissues are counterstained with Fast green (in green/blue).

The subject of experiment [4] is Cartilage explants from OA patient's knee cartilage. As to the kind of experiment: PGE2 ELISA, cartilage explants. The note with it: 10 nM, 14 days. The method, then: Cartilage explants of 3 mm^2 were taken from OA patient's knee cartilage (n=6) and treated with BMP-7 (1 nM), with peptide […] (SEQ ID NO: 13) at 10 nM or a scrambled irrelevant control peptide (10 nM) for 14 days. Prostaglandin E2 (PGE2) levels, a pro-hypertrophic factor, were determined via an ELISA.

Experiment [5] concerns Synovial tissue samples from OA patients. As to the kind of experiment: PGE2 ELISA, synovial tissue samples. The conditions noted are these: 10 nM, 24 h. The method, then: Synovial tissue samples from OA patients (n=6) were treated with BMP-7 (1 nM), with peptide […] (SEQ ID NO: 13) at 10 nM or a scrambled irrelevant control peptide (10 nM) for 24 h. PGE2 levels were determined via an ELISA.
In general terms: ELISA stands for enzyme-linked immunosorbent assay.

For experiment [6], the system named is Hoffa's fat pad tissue samples from OA patients. Description: PGE2 ELISA, Hoffa's fat pad tissue samples. The note with it: 10 nM, 24 h. The protocol: Hoffa's fat pad tissue samples from OA patients (n=6) were treated with BMP-7 (1 nM) with peptide […] (SEQ ID NO: 13) at 10 nM or a scrambled irrelevant control peptide (10 nM) for 24 h. PGE2 levels were determined via an ELISA.

Experiment [7] relates to Meniscus tissue samples from OA patients. As to the kind of experiment: PGE2 ELISA, meniscus tissue samples. The note with it: 10 nM, 24 h. The protocol: Meniscus tissue samples from OA patients (n=6) were treated with BMP-7 (1 nM) with peptide peptide […] (SEQ ID NO: 13) at 10 nM or a scrambled irrelevant control peptide (10 nM) for 24 h. PGE2 levels were determined via an ELISA.

For the substance “YSEGESAFPLNS (listed as Homo sapiens) [SEQ ID NO: 43]”, in experiment [1], the “COL10A1 (pro-hypertrophic) gene expression” value is reported as “downregulation”, the “COX-2 (pro-hypertrophic) gene expression” value is on record as “downregulation”, the “Col2a1 (pro-chondrogenic) gene expression” value is recorded as “upregulation” and the “RUNX2 (pro-hypertrophic) gene expression” value is recorded as “downregulation”. Moreover, in experiment [2], the Col10a1 gene expression entry is on record as “downregulation” and the MMP13 gene expression result is reported as “downregulation”.

Consider “20 (KTPKNQEALRMANVAENSSSSSDQRQACKK; listed as Homo sapiens) [compound 20]”, for which, in experiment [3], the ADAMTS5 result is “—”, the ALP result was “—”, the BAPX1/NKX3.2 entry was “—” and the COL10A result is given as “—”. In addition, in experiment [3], the IL-6 result is given as “—” and the RUNX2 entry is listed as “—”.

Take “KPSSAPTQLNAISVLYFDDS (listed as Homo sapiens) [SEQ ID NO: 7]”: the “suppression of the OA chondrocyte phenotype” value (“suppression” for short) in experiment [3] is recorded as “efficiently suppressed the OA chondrocyte phenotype”.

Take “26 (SSNVILKKYRNMVVRACGCH; listed as Homo sapiens) [compound 26]”: in experiment [3], the ADAMTS5 result was “—”, the ALP entry is “—”, the BAPX1/NKX3.2 entry was “—” and the COL10A result is reported as “—”. In experiment [3], the IL-6 entry is on record as “—” and the RUNX2 entry is given as “—”.

Take “PKPSSAPTQLNAISVLYFDD (listed as Homo sapiens) [SEQ ID NO: 6]”: the “suppression” value in experiment [3] is given as “efficiently suppressed the OA chondrocyte phenotype”.

As to “FDDSSNVILKKYRNMVVRAS (listed as Homo sapiens) [SEQ ID NO: 15]”, the “suppression” value in experiment [3] is listed as “efficiently suppressed the OA chondrocyte phenotype”.

Turning to “LNAISVLYFDDSSNVILKKY (listed as Homo sapiens) [SEQ ID NO: 11]”, in experiment [3], the “suppression” value was “efficiently suppressed the OA chondrocyte phenotype”.

Turning to “25 (CCAPTQLNAISVLYFDDSSN; listed as Homo sapiens) [compound 25]”, in experiment [3], the ADAMTS5 result was “—”, the ALP result is on record as “—”, the BAPX1/NKX3.2 entry is recorded as “—” and the COL10A result is “—”. In addition, in experiment [3], the IL-6 entry was “—” and the RUNX2 result is reported as “—”.

On to “19 (STGSKQRSQNRSKTPKNQEA; listed as Homo sapiens) [compound 19]”, for which, in experiment [3], the ADAMTS5 result was “—”, the ALP result is recorded as “—”, the BAPX1/NKX3.2 result is on record as “—” and the COL10A result is listed as “—”. Further, in experiment [3], the IL-6 result is “—” and the RUNX2 result was “—”.

As for “24 (AIVQTLVHFINPETVPKPCC; listed as Homo sapiens) [compound 24]”, in experiment [3], the ADAMTS5 entry was “—”, the ALP result is reported as “—”, the BAPX1/NKX3.2 entry is “—” and the COL10A entry is on record as “—”. In addition, in experiment [3], the IL-6 result was “—” and the RUNX2 result is “—”.

For the substance “SVLYFDDSSNVILKKYRNMV (listed as Homo sapiens) [SEQ ID NO: 13]”, the “suppression” value in experiment [3] was “efficiently suppressed the OA chondrocyte phenotype”. Also, the “Safranin-O intensity (glycosaminoglycans)” value with Cartilage explants is on record as “increased Safranin-O intensity”. The PGE2 levels result in experiment [4], in experiment [5], in experiment [6] and in experiment [7] was “reduce PGE2 levels” each time.
